Source: ChEMBL document CHEMBL4673356, “Assessing the cellular toxicity of peptide inhibitors of intracellular protein-protein interactions by microinjection” (Bioorg Med Chem, 2021)
pKd: −log10 of the molar value. Where a SMILES comes first, the peptide text is derived from it. [ ]: non-standard residue; d: D form. The star is where a group is joined. X1 = CCN1/C(=C/C=C/C=C/C2=[N+](CCCCCC(=O)*)c3ccc(S(=O)(=O)[O-])cc3C2(C)C)C(C)(C)c2cc(S(=O)(=O)O)ccc21; βAla = NCCC(=O)O

Columns and labels:
[1] = Stability of the compound in human AD293 cells assessed as intact compound remaining at 20 uM measured after 5 hrs by LC-MS analysis; type: ADME, cell-based; details: read-out: Stabilty
[2] = Stability of the compound in human AD293 cells assessed as intact compound remaining at 20 uM measured after 24 hrs by LC-MS analysis; type: ADME, cell-based; details: read-out: Stabilty
[3] = Inhibition of iNOS (unknown origin) and SPSB2 interaction assessed as binding affinity to murine SPSB2 immobilized on CM5 chip by SPR assay; set-up: species or system Mus musculus
AD293 [4] = assay: Cytotoxicity against human AD293 cells assessed as cell viability at 2.7 to 273 uM co-treated via microinjection with Cy5-BSA into cytoplasm and measured after 5 hrs by Cy5-BSA/PI staining based fluorescence analysis; details: ad293, 5 h, dose 2.7-273 µM
AD293 [5] = assay: Cytotoxicity against human AD-293 cells assessed as morphologically intact viable cells at 2.7 to 273 uM co-treated via microinjection with Cy5-BSA into cytoplasm and measured after 5 hrs by Cy5-BSA/PI staining based fluorescence analysis; type: cell-based; details: ad293, 5 h, dose 2.7-273 µM
AD293 [6] = assay: Cytotoxicity against human AD293 cells assessed as cell viability at 2.7 to 273 uM co-treated via microinjection with Cy5-BSA into nucleus and measured after 5 hrs by Cy5-BSA/PI staining based fluorescence analysis; details: ad293, 5 h, dose 2.7-273 µM
AD293 [7] = assay: Cytotoxicity against human AD293 cells assessed as cell viability at 200 uM; type: cell-based; details: ad293, 200 µM
[8] = Drug localization in cytosol of human AD293 cells at 7.3 uM treated via microinjection into cytoplasm measured up to 5 hrs by confocal microscopic analysis; type: ADME, subcellular

| remaining at 5 h, 20 µM [1] [%] | remaining at 24 h, 20 µM [2] [%] | pKd [3] | Drug uptake [8] | Structure (SMILES) | Activity (AD293 [4]) | Activity (AD293 [5]) | Activity (AD293 [6]) | Activity (AD293 [7]) |
| --- | --- | --- | --- | --- | --- | --- | --- | --- |
| 97.5 | 94.7 | 7.68 | – | CC[C@H](C)[C@@H]1NC(=O)[C@H](CC(=O)O)NC(=O)[C@H](Cc2c[nH]c3ccccc23)NC(=O)CCNC(=O)[C@H](CC(N)=O)NC(=O)[C@H](CC(N)=O)NC(=O)[C@H](CC(N)=O)NC1=O (cyclo(DINNN[βAla]W)) | Non-Toxic | Non-Toxic | Non-Toxic | Non-Toxic |
| – | – | 6.96 | Active | CCN1/C(=C/C=C/C=C/C2=[N+](CCCCCC(=O)NCCCC[C@@H]3NC(=O)[C@H](CC(=O)O)NC(=O)[C@H](Cc4c[nH]c5ccccc45)NC(=O)CCNC(=O)[C@H](CC(N)=O)NC(=O)[C@H](CC(N)=O)NC(=O)[C@H](CC(N)=O)NC3=O)c3ccc(S(=O)(=O)[O-])cc3C2(C)C)C(C)(C)c2cc(S(=O)(=O)O)ccc21 (cyclo(DK(X1)NNN[βAla]W)) | – | – | – | – |
